Reference: PubChem BioAssay (NCI)
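1) Cells in 96-well plates. 2) Compound, 48 h, 5 concentrations. 3) Linear interpolation between surrounding doses. 4) Unreached endpoint = highest concentration. Abbreviation: GI50, concentration required for 50% inhibition of growth. TGI is the concentration that stops growth completely.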

How the values were obtained:
Assay in all cases: DTP human tumour cell line panel, 48 h
[1] = tested on: 786-0 renal
[2] = tested on: A549 NSCLC
[3] = tested on: ACHN renal
[4] = tested on: BT-549 breast
[5] = tested on: CAKI-1 renal
[6] = tested on: CCRF-CEM leukemia
[7] = tested on: COLO 205 colon
[8] = tested on: DU-145 prostate
[9] = tested on: EKVX NSCLC
[10] = tested on: HCT-116 colon
[11] = tested on: HCT-15 colon
[12] = tested on: HL-60(TB) leukemia
[13] = tested on: HOP-62 NSCLC
[14] = tested on: HOP-92 NSCLC
[15] = tested on: HS 578T breast
[16] = tested on: HT29 colon
[17] = tested on: IGROV1 ovarian
[18] = tested on: KM12 colon
[19] = tested on: LOX IMVI melanoma
[20] = tested on: M14 melanoma
[21] = tested on: MALME-3M melanoma
[22] = tested on: MCF7 breast
[23] = tested on: MDA-MB-231 breast
[24] = tested on: MDA-MB-435
[25] = tested on: MOLT-4 leukemia
[26] = tested on: NCI-H226 lung
[27] = tested on: NCI-H23 lung
[28] = tested on: NCI-H460 lung
[29] = tested on: NCI-H522 lung
[30] = tested on: NCI/ADR-RES ovarian
[31] = tested on: OVCAR-3 ovarian
[32] = tested on: OVCAR-4 ovarian
[33] = tested on: OVCAR-5 ovarian
[34] = tested on: OVCAR-8 ovarian
[35] = tested on: PC-3 prostate
[36] = tested on: RPMI-8226 leukemia
[37] = tested on: RXF 393 renal
[38] = tested on: SF-268 CNS
[39] = tested on: SF-295 CNS
[40] = tested on: SF-539 CNS
[41] = tested on: SK-MEL-2 melanoma
[42] = tested on: SK-MEL-28 melanoma
[43] = tested on: SK-MEL-5 melanoma
[44] = tested on: SK-OV-3 ovarian
[45] = tested on: SN12C renal
[46] = tested on: SNB-19 CNS
[47] = tested on: SW-620 colon
[48] = tested on: T-47D breast
[49] = tested on: TK-10 renal
[50] = tested on: U251 CNS
[51] = tested on: UACC-257 melanoma
[52] = tested on: UACC-62 melanoma
[53] = tested on: UO-31 renal
[54] = tested on: A498 renal
[55] = tested on: K-562 leukemia
[56] = tested on: SNB-75 CNS
[57] = tested on: SR leukemia

In the case of COc1ccc(Cn2c(Cl)c(/C=C3/C(=O)Nc4ccccc43)c3cc(OC)c(C)cc32)cc1, the GI50 [1] is reported as 3.92 µM, the TGI [1] is reported as 31.7 µM and the GI50 [2] is reported as 7.86 µM. For the same compound, the TGI [2] was greater than 100 µM, the GI50 [3] was 8.11 µM and the TGI [3] was greater than 100 µM. The GI50 [4] was 17.2 µM, the TGI [4] was greater than 100 µM and the GI50 [5] was 5.81 µM. For the same compound, the TGI [5] was greater than 100 µM, the GI50 [6] was 4.94 µM and the TGI [6] was greater than 100 µM. The GI50 [7] was 2.33 µM, the TGI [7] was 5.52 µM and the GI50 [8] was 18.1 µM. It also gave a TGI [8] greater than 100 µM, a GI50 [9] of 45.5 µM and a TGI [9] greater than 100 µM. For the same compound, the GI50 [10] was 3.77 µM, the TGI [10] was 39.1 µM and the GI50 [11] was 4.15 µM. For the same compound, the TGI [11] was greater than 100 µM, the GI50 [12] was 4.05 µM and the TGI [12] was greater than 100 µM. The GI50 [13] was 5.67 µM, the TGI [13] was greater than 100 µM and the GI50 [14] was 53.8 µM. It also gave a TGI [14] greater than 100 µM, a GI50 [15] of 2.32 µM and a TGI [15] greater than 100 µM. The GI50 [16] was 4.1 µM, the TGI [16] was greater than 100 µM and the GI50 [17] was 13.3 µM. It also gave a TGI [17] greater than 100 µM, a GI50 [18] of 3.99 µM and a TGI [18] of 23.8 µM. The GI50 [19] was 14.3 µM, the TGI [19] was greater than 100 µM and the GI50 [20] was 3.27 µM. The TGI [20] was 15 µM, the GI50 [21] was 9.44 µM and the TGI [21] was greater than 100 µM. The GI50 [22] was 5.87 µM, the TGI [22] was greater than 100 µM and the GI50 [23] was 4.22 µM. For the same compound, the TGI [23] was greater than 100 µM, the GI50 [24] was 2.06 µM and the TGI [24] was 6.08 µM. The GI50 [25] was 5.55 µM, the TGI [25] was greater than 100 µM and the GI50 [26] was 2.92 µM. The TGI [26] was 8.32 µM, the GI50 [27] was 4.78 µM and the TGI [27] was greater than 100 µM. For the same compound, the GI50 [28] was 5.03 µM, the TGI [28] was greater than 100 µM and the GI50 [29] was 4.77 µM. It also gave a TGI [29] greater than 100 µM, a GI50 [30] of 2 µM and a TGI [30] of 4.77 µM. The GI50 [31] was 2.3 µM, the TGI [31] was 5.37 µM and the GI50 [32] was 4.01 µM. For the same compound, the TGI [32] was greater than 100 µM, the GI50 [33] was 6.06 µM and the TGI [33] was greater than 100 µM. It also gave a GI50 [34] of 5.96 µM, a TGI [34] greater than 100 µM and a GI50 [35] of 6.22 µM. For the same compound, the TGI [35] was greater than 100 µM, the GI50 [36] was 4.26 µM and the TGI [36] was 79 µM. It also gave a GI50 [37] of 4.06 µM, a TGI [37] greater than 100 µM and a GI50 [38] of 8.94 µM. It also gave a TGI [38] greater than 100 µM, a GI50 [39] of 2.92 µM and a TGI [39] of 24.2 µM. The GI50 [40] was 4.15 µM, the TGI [40] was greater than 100 µM and the GI50 [41] was 19.8 µM. The TGI [41] was greater than 100 µM, the GI50 [42] was 4.03 µM and the TGI [42] was greater than 100 µM. The GI50 [43] was 2.44 µM, the TGI [43] was 16 µM and the GI50 [44] was 3.56 µM. The TGI [44] was greater than 100 µM, the GI50 [45] was 8.17 µM and the TGI [45] was greater than 100 µM. The GI50 [46] was 4.09 µM, the TGI [46] was greater than 100 µM and the GI50 [47] was 3.46 µM. It also gave a TGI [47] greater than 100 µM, a GI50 [48] of 25 µM and a TGI [48] greater than 100 µM. It also gave a GI50 [49] of 13.3 µM, a TGI [49] greater than 100 µM and a GI50 [50] of 6.05 µM. It also gave a TGI [50] greater than 100 µM, a GI50 [51] of 55.3 µM and a TGI [51] greater than 100 µM. For the same compound, the GI50 [52] was 2.17 µM, the TGI [52] was 18.7 µM and the GI50 [53] was 5.82 µM. The TGI [53] was greater than 100 µM.

Work on NNc1nncn1N yielded a TGI [1] greater than 100 µM, a TGI [54] greater than 100 µM and a TGI [2] greater than 100 µM. For the same compound, the TGI [3] was greater than 100 µM, the TGI [4] was greater than 100 µM and the TGI [5] was greater than 100 µM. The TGI [6] was 33.2 µM, the TGI [7] was greater than 100 µM and the TGI [8] was greater than 67.3 µM. The TGI [9] was greater than 100 µM, the TGI [10] was greater than 100 µM and the TGI [11] was greater than 100 µM. The TGI [12] was greater than 100 µM, the TGI [13] was greater than 100 µM and the TGI [14] was greater than 100 µM. The TGI [15] was greater than 100 µM, the TGI [16] was greater than 100 µM and the TGI [17] was greater than 100 µM. The TGI [55] was greater than 100 µM, the TGI [18] was greater than 100 µM and the TGI [19] was greater than 100 µM. It also gave a TGI [20] greater than 100 µM, a TGI [21] greater than 85.4 µM and a TGI [22] greater than 100 µM. The TGI [23] was greater than 100 µM, the TGI [24] was 36.3 µM and the TGI [25] was greater than 100 µM. The TGI [26] was greater than 100 µM, the TGI [27] was greater than 79.5 µM and the TGI [28] was greater than 100 µM. For the same compound, the TGI [29] was greater than 100 µM, the TGI [30] was greater than 100 µM and the TGI [31] was greater than 100 µM. For the same compound, the TGI [32] was greater than 96.7 µM, the TGI [33] was greater than 100 µM and the TGI [34] was greater than 100 µM. For the same compound, the TGI [35] was greater than 100 µM, the TGI [36] was greater than 100 µM and the TGI [37] was greater than 100 µM. The TGI [38] was greater than 100 µM, the TGI [39] was greater than 100 µM and the TGI [40] was greater than 100 µM. It also gave a TGI [41] greater than 100 µM, a TGI [42] greater than 100 µM and a TGI [43] greater than 100 µM. It also gave a TGI [44] greater than 100 µM, a TGI [45] greater than 100 µM and a TGI [46] greater than 100 µM. For the same compound, the TGI [56] was greater than 100 µM, the TGI [57] was greater than 100 µM and the TGI [47] was greater than 100 µM. It also gave a TGI [48] greater than 100 µM, a TGI [49] greater than 100 µM and a TGI [50] greater than 100 µM. For the same compound, the TGI [51] was greater than 100 µM, the TGI [52] was greater than 100 µM and the TGI [53] was greater than 100 µM.
